Results from patent US6358885B1, “Substituted phenylheterocyclic herbicides” (Mississippi State University, priority 1992, dated 2002).

What was measured:
Japonica rice [1] = experiment: Test D paddy water application plant response rating 0 to 100; format: in vivo, Oryza sativa; conditions: approx. 21 days
Text: (§1) Plastic pots were partially filled with silt loam soil. The soil was then saturated with water. […] After planting, water levels were raised to 3 cm above the soil surface and maintained at this level throughout the test. Chemical treatments were formulated in a non-phytotoxic solvent and applied directly to the paddy water. Treated plants and controls were maintained in a greenhouse for approximately 21 days, after which all species were compared to controls and visually evaluated. […] A dash (-) response means no test result.

barnyardgrass [2] = experiment: as above; format: in vivo, Echinochloa crus-galli; conditions: approx. 21 days
Text: as §1

umbrella sedge = experiment: as above; format: in vivo, Cyperus difformis; conditions: approx. 21 days
Text: as §1

duck salad = experiment: as above; format: in vivo, Heteranthera limosa; conditions: approx. 21 days
Text: as §1

arrowhead = experiment: as above; format: in vivo, Sagittaria spp.; conditions: approx. 21 days
Text: as §1

barnyardgrass [3] = experiment: Test E paddy water application plant response rating 0 to 100; format: in vivo, Echinochloa crus-galli; conditions: Flood, 0 to 100 scale, approx. 21 days
Text: (§2) Plastic pots were partially filled with silt loam soil. […] At testing, the water level for all plantings was raised to 2 cm above the soil surface. Chemical treatments were formulated in a non-phytotoxic solvent and applied directly to the paddy water. Treated plants and controls were maintained in a greenhouse for approximately 21 days, after which all species were compared to controls and visually evaluated. […] A dash (-) response means no test result.

waterchestnut = experiment: Test D paddy water application plant response rating 0 to 100; format: in vivo, Eleocharis spp.; conditions: approx. 21 days
Text: as §1

Japonica rice [4] = experiment: Test E paddy water application plant response rating 0 to 100; format: in vivo, oryza sativa; conditions: Flood, 0 to 100 scale, approx. 21 days
Text: as §2

[5] = Rate 500 g/ha, 0 to 100 scale (0 no effect, 100 complete control)

SMILES: CC(C)N1C(=O)COc2cc(F)c(-c3nn4c(c3Cl)CCCC4)cc21 [Compound 31]
- Japonica rice plant response rating (Japonica rice [1]; Rate 4 g/ha, 0 to 100 scale): 10
- Japonica rice plant response rating (Japonica rice [1]; Rate 8 g/ha, 0 to 100 scale): 15
- Japonica rice plant response rating (Japonica rice [1]; Rate 16 g/ha, 0 to 100 scale): 20
- Japonica rice plant response rating (Japonica rice [1]; Rate 32 g/ha, 0 to 100 scale): 25
- Japonica rice plant response rating (Japonica rice [1]; Rate 64 g/ha, 0 to 100 scale): 30
- Barnyardgrass 2 plant response rating (barnyardgrass [2]; Rate 4 g/ha, 0 to 100 scale): 0
- Barnyardgrass 2 plant response rating (barnyardgrass [2]; Rate 8 g/ha, 0 to 100 scale): 0
- Barnyardgrass 2 plant response rating (barnyardgrass [2]; Rate 16 g/ha, 0 to 100 scale): 30
- Barnyardgrass 2 plant response rating (barnyardgrass [2]; Rate 32 g/ha, 0 to 100 scale): 40
- Barnyardgrass 2 plant response rating (barnyardgrass [2]; Rate 64 g/ha, 0 to 100 scale): 60
- Umbrella sedge plant response rating (umbrella sedge; Rate 4 g/ha, 0 to 100 scale): 0
- Umbrella sedge plant response rating (umbrella sedge; Rate 8 g/ha, 0 to 100 scale): 0
- Umbrella sedge plant response rating (umbrella sedge; Rate 16 g/ha, 0 to 100 scale): 20
- Umbrella sedge plant response rating (umbrella sedge; Rate 32 g/ha, 0 to 100 scale): 65
- Umbrella sedge plant response rating (umbrella sedge; Rate 64 g/ha, 0 to 100 scale): 75
- Duck salad plant response rating (duck salad; Rate 4 g/ha, 0 to 100 scale): 0
- Duck salad plant response rating (duck salad; Rate 8 g/ha, 0 to 100 scale): 0
- Duck salad plant response rating (duck salad; Rate 16 g/ha, 0 to 100 scale): 0
- Duck salad plant response rating (duck salad; Rate 32 g/ha, 0 to 100 scale): 0
- Duck salad plant response rating (duck salad; Rate 64 g/ha, 0 to 100 scale): 0
- Arrowhead plant response rating (arrowhead; Rate 4 g/ha, 0 to 100 scale): 50
- Arrowhead plant response rating (arrowhead; Rate 8 g/ha, 0 to 100 scale): 60
- Arrowhead plant response rating (arrowhead; Rate 16 g/ha, 0 to 100 scale): 85
- Arrowhead plant response rating (arrowhead; Rate 32 g/ha, 0 to 100 scale): 100
- Arrowhead plant response rating (arrowhead; Rate 64 g/ha, 0 to 100 scale): 100

SMILES: Fc1cc(Cl)ccc1-c1nn2c(c1Br)CCCC2 [Compound 52]
- Barnyardgrass 2 plant response rating (barnyardgrass [3]; Rate 8 g/ha): 40
- Barnyardgrass 3 plant response rating (barnyardgrass [3]; Rate 8 g/ha): 35
- Barnyardgrass 2 plant response rating (barnyardgrass [3]; Rate 16 g/ha): 45
- Barnyardgrass 3 plant response rating (barnyardgrass [3]; Rate 16 g/ha): 55
- Barnyardgrass 2 plant response rating (barnyardgrass [3]; Rate 32 g/ha): 100
- Barnyardgrass 3 plant response rating (barnyardgrass [3]; Rate 32 g/ha): 65
- Barnyardgrass 2 plant response rating (barnyardgrass [3]; Rate 64 g/ha): 100
- Barnyardgrass 3 plant response rating (barnyardgrass [3]; Rate 64 g/ha): 100
- Barnyardgrass 2 plant response rating (barnyardgrass [3]; Rate 125 g/ha): 100
- Barnyardgrass 3 plant response rating (barnyardgrass [3]; Rate 125 g/ha): 100
- Waterchestnut plant response rating (waterchestnut; Rate 32 g/ha, 0 to 100 scale): 0
- Waterchestnut plant response rating (waterchestnut; Rate 64 g/ha, 0 to 100 scale): 15
- Waterchestnut plant response rating (waterchestnut; Rate 125 g/ha, 0 to 100 scale): 25
- Waterchestnut plant response rating (waterchestnut; Rate 250 g/ha, 0 to 100 scale): 40
- Waterchestnut plant response rating (waterchestnut; [5]): 65
- Japonica 1 plant response rating (Japonica rice [4]; Rate 8 g/ha): 0
- Japonica 2 plant response rating (Japonica rice [4]; Rate 8 g/ha): 10
- Japonica 1 plant response rating (Japonica rice [4]; Rate 16 g/ha): 10
- Japonica 2 plant response rating (Japonica rice [4]; Rate 16 g/ha): 15
- Japonica 1 plant response rating (Japonica rice [4]; Rate 32 g/ha): 20
- Japonica 2 plant response rating (Japonica rice [4]; Rate 32 g/ha): 20
- Japonica 1 plant response rating (Japonica rice [4]; Rate 64 g/ha): 35
- Japonica 2 plant response rating (Japonica rice [4]; Rate 64 g/ha): 25
- Japonica 1 plant response rating (Japonica rice [4]; Rate 125 g/ha): 55
- Japonica 2 plant response rating (Japonica rice [4]; Rate 125 g/ha): 40
- Japonica rice plant response rating (Japonica rice [1]; Rate 32 g/ha, 0 to 100 scale): 20
- Japonica rice plant response rating (Japonica rice [1]; Rate 64 g/ha, 0 to 100 scale): 20
- Japonica rice plant response rating (Japonica rice [1]; Rate 125 g/ha, 0 to 100 scale): 25
- Japonica rice plant response rating (Japonica rice [1]; Rate 250 g/ha, 0 to 100 scale): 25
- Japonica rice plant response rating (Japonica rice [1]; [5]): 30
- Barnyardgrass 2 plant response rating (barnyardgrass [2]; Rate 32 g/ha, 0 to 100 scale): 100
- Barnyardgrass 2 plant response rating (barnyardgrass [2]; Rate 64 g/ha, 0 to 100 scale): 100
- Barnyardgrass 2 plant response rating (barnyardgrass [2]; Rate 125 g/ha, 0 to 100 scale): 100
- Barnyardgrass 2 plant response rating (barnyardgrass [2]; Rate 250 g/ha, 0 to 100 scale): 100
- Barnyardgrass 2 plant response rating (barnyardgrass [2]; [5]): 100
- Umbrella sedge plant response rating (umbrella sedge; Rate 32 g/ha, 0 to 100 scale): 0
- Umbrella sedge plant response rating (umbrella sedge; Rate 64 g/ha, 0 to 100 scale): 0
- Umbrella sedge plant response rating (umbrella sedge; Rate 125 g/ha, 0 to 100 scale): 20
- Umbrella sedge plant response rating (umbrella sedge; Rate 250 g/ha, 0 to 100 scale): 50
- Umbrella sedge plant response rating (umbrella sedge; [5]): 80
- Duck salad plant response rating (duck salad; Rate 32 g/ha, 0 to 100 scale): 0
- Duck salad plant response rating (duck salad; Rate 64 g/ha, 0 to 100 scale): 10
- Duck salad plant response rating (duck salad; Rate 125 g/ha, 0 to 100 scale): 80
- Duck salad plant response rating (duck salad; Rate 250 g/ha, 0 to 100 scale): 80
- Duck salad plant response rating (duck salad; [5]): 100
- Arrowhead plant response rating (arrowhead; Rate 32 g/ha, 0 to 100 scale): 10
- Arrowhead plant response rating (arrowhead; Rate 64 g/ha, 0 to 100 scale): 10
- Arrowhead plant response rating (arrowhead; Rate 125 g/ha, 0 to 100 scale): 40
- Arrowhead plant response rating (arrowhead; Rate 250 g/ha, 0 to 100 scale): 30
- Arrowhead plant response rating (arrowhead; [5]): 40
